{
  "source": "ChEMBL document CHEMBL2346507",
  "about": "(Bioorg Med Chem, 2013)",
  "key": {"[1]": {"test": "Cmax in Crl:CD (SD) albino rat at 0.5 mg/kg, po", "type": "ADME, organism-based", "set-up": "dose 0.5 mg/kg, route oral", "conditions": "in vivo"}, "[2]": {"test": "Metabolic stability in human liver microsomes at 1 umol/L", "type": "ADME, Microsome", "conditions": "read-out: Stability"}, "[3]": {"test": "Drug uptake in athymic BALB/cAcl-nu/nu mouse lung xenografted with human A549 cells at 1 mg/kg, po measured at 8 hrs by LC/MS/MS analysis", "type": "ADME, organism-based", "set-up": "dose 1 mg/kg, route oral", "conditions": "read-out: Drug uptake"}, "[4]": {"test": "AUC (0 to 48 hrs) in cynomolgus monkey at 0.5 mg/kg, po", "type": "ADME, organism-based, Macaca fascicularis", "set-up": "time < 48 hr, dose 0.5 mg/kg, route oral", "conditions": "plasma"}, "[5]": {"test": "Mean residence time in cynomolgus monkey at 0.5 mg/kg, po", "type": "ADME, organism-based, Macaca fascicularis", "set-up": "dose 0.5 mg/kg, route oral", "conditions": "in vivo"}, "[6]": {"test": "Plasma concentration in athymic BALB/cAcl-nu/nu mouse xenografted with human A549 cells at 1 mg/kg, po measured at 1 hr by LC/MS/MS analysis", "type": "ADME, organism-based", "set-up": "dose 1 mg/kg, route oral"}, "[7]": {"test": "Volume of distribution at steady state in cynomolgus monkey at […], iv", "type": "ADME, organism-based, Macaca fascicularis", "set-up": "dose 0.25 mg/kg, route intravenous", "conditions": "in vivo, read-out: Vdss"}, "[8]": {"test": "Tmax in Crl:CD (SD) albino rat at 0.5 mg/kg, po", "type": "ADME, organism-based", "set-up": "dose 0.5 mg/kg, route oral", "conditions": "in vivo"}, "[9]": {"test": "Total plasma clearance in Crl:CD (SD) albino rat at […], iv", "type": "ADME, organism-based", "set-up": "dose 0.25 mg/kg, route intravenous"}, "[10]": {"test": "Oral bioavailability in Crl:CD (SD) albino rat at 0.5 mg/kg", "type": "ADME, organism-based", "conditions": "in vivo"}, "[11]": {"test": "Lipophilicity, log D of the compound at pH 7.4", "type": "physicochemical", "conditions": "buffer"}, "[12]": {"test": "Total plasma clearance in cynomolgus monkey at […], iv", "type": "ADME, organism-based, Macaca fascicularis", "set-up": "dose 0.25 mg/kg, route intravenous"}, "[13]": {"test": "Plasma concentration in athymic BALB/cAcl-nu/nu mouse xenografted with human A549 cells at 1 mg/kg, po measured at 8 hrs by LC/MS/MS analysis", "type": "ADME, organism-based", "set-up": "dose 1 mg/kg, route oral"}, "[14]": {"test": "Thermodynamic solubility of the compound in Japanese pharmacopoeia disintegration solution 2 containing bile acid at pH 6.8 after 18 hrs by HPLC analysis", "type": "physicochemical", "conditions": "read-out: Therm_solubility"}, "[15]": {"test": "Tmax in cynomolgus monkey at 0.5 mg/kg, po", "type": "ADME, organism-based, Macaca fascicularis", "set-up": "dose 0.5 mg/kg, route oral", "conditions": "in vivo"}, "[16]": {"test": "Cmax in cynomolgus monkey at 0.5 mg/kg, po", "type": "ADME, organism-based, Macaca fascicularis", "set-up": "dose 0.5 mg/kg, route oral", "conditions": "in vivo"}, "[17]": {"test": "Oral bioavailability in cynomolgus monkey at 0.5 mg/kg", "type": "ADME, organism-based, Macaca fascicularis", "conditions": "in vivo"}, "[18]": {"test": "Drug uptake in athymic BALB/cAcl-nu/nu mouse lung xenografted with human A549 cells at 1 mg/kg, po measured at 1 hr by LC/MS/MS analysis", "type": "ADME, organism-based", "set-up": "dose 1 mg/kg, route oral", "conditions": "read-out: Drug uptake"}, "[19]": {"test": "Volume of distribution at steady state in Crl:CD (SD) albino rat at […], iv", "type": "ADME, organism-based", "set-up": "dose 0.25 mg/kg, route intravenous", "conditions": "in vivo, read-out: Vdss"}, "[20]": {"test": "AUC (0 to 48 hrs) in cynomolgus monkey at […], iv", "type": "ADME, organism-based, Macaca fascicularis", "set-up": "time < 48 hr, dose 0.25 mg/kg, route intravenous", "conditions": "plasma"}, "[21]": {"test": "Metabolic stability in mouse liver microsomes at 1 umol/L", "type": "ADME, Microsome", "conditions": "read-out: Stability"}, "[22]": {"test": "Mean residence time in Crl:CD (SD) albino rat at 0.5 mg/kg, po", "type": "ADME, organism-based", "set-up": "dose 0.5 mg/kg, route oral", "conditions": "in vivo"}, "[23]": {"test": "AUC (0 to 24 hrs) in Crl:CD (SD) albino rat at […], iv", "type": "ADME, organism-based", "set-up": "time < 24 hr, dose 0.25 mg/kg, route intravenous", "conditions": "plasma"}, "[24]": {"test": "AUC (0 to 24 hrs) in Crl:CD (SD) albino rat at 0.5 mg/kg, po", "type": "ADME, organism-based", "set-up": "time < 24 hr, dose 0.5 mg/kg, route oral", "conditions": "plasma"}},
  "data": [
    {"smiles": "Cc1cc(C(=O)Nc2cc(Oc3ccc4nc(NC(=O)C5CC5)cn4n3)ccc2C)n(C)n1", "note": "[TAK-593]", "values": [
      {"measurement": "Cmax", "setting": "[1]", "value": 56, "unit": "ng/mL"},
      {"measurement": "microsomal CLint at 1 µM", "setting": "[2]", "value": 2, "unit": "µL/min/mg"},
      {"measurement": "concentration at 8 h", "setting": "[3]", "value": "< 15", "unit": "ng/g"},
      {"measurement": "AUC(0-t) at 48 h", "setting": "[4]", "value": 1510, "unit": "ng·h/mL"},
      {"measurement": "MRT", "setting": "[5]", "value": 11, "unit": "h"},
      {"measurement": "concentration at 1 h", "setting": "[6]", "value": 451, "unit": "ng/mL"},
      {"measurement": "Vd", "setting": "[7]", "value": 1.03, "unit": "L/kg"},
      {"measurement": "Tmax", "setting": "[8]", "value": 1.3, "unit": "h"},
      {"measurement": "clearance", "setting": "[9]", "value": 7.3, "unit": "mL/min/kg"},
      {"measurement": "bioavailability", "setting": "[10]", "value": 19.8, "unit": "%"},
      {"measurement": "logD", "setting": "[11]", "value": 2.24},
      {"measurement": "clearance", "setting": "[12]", "value": 3.18, "unit": "mL/min/kg"},
      {"measurement": "concentration at 8 h", "setting": "[13]", "value": "< 3", "unit": "ng/mL"},
      {"measurement": "solubility thermodynamic at 18 h", "setting": "[14]", "value": 38, "unit": "µg/mL"},
      {"measurement": "Tmax", "setting": "[15]", "value": 2.8, "unit": "h"},
      {"measurement": "Cmax", "setting": "[16]", "value": 129, "unit": "ng/mL"},
      {"measurement": "bioavailability", "setting": "[17]", "value": 57.6, "unit": "%"},
      {"measurement": "concentration at 1 h", "setting": "[18]", "value": 242, "unit": "ng/g"},
      {"measurement": "Vd", "setting": "[19]", "value": 0.471, "unit": "L/kg"},
      {"measurement": "AUC(0-t) at 48 h", "setting": "[20]", "value": 1310, "unit": "ng·h/mL"},
      {"measurement": "microsomal CLint at 1 µM", "setting": "[21]", "value": 31, "unit": "µL/min/mg"},
      {"measurement": "MRT", "setting": "[22]", "value": 3.3, "unit": "h"},
      {"measurement": "AUC(0-t) at 24 h", "setting": "[23]", "value": 571, "unit": "ng·h/mL"},
      {"measurement": "AUC(0-t) at 24 h", "setting": "[24]", "value": 226, "unit": "ng·h/mL"}
    ]},
    {"smiles": "Cc1cc(C(=O)Nc2cccc(Oc3ccc4nc(NC(=O)C5CC5)cn4n3)c2)n(C)n1", "values": [
      {"measurement": "microsomal CLint at 1 µM", "setting": "[2]", "value": 6, "unit": "µL/min/mg"},
      {"measurement": "logD", "setting": "[11]", "value": 2.28},
      {"measurement": "solubility thermodynamic at 18 h", "setting": "[14]", "value": 3.7, "unit": "µg/mL"},
      {"measurement": "microsomal CLint at 1 µM", "setting": "[21]", "value": 43, "unit": "µL/min/mg"}
    ]},
    {"smiles": "Cc1cc(C(=O)Nc2cc(Oc3ccc4nc(NC(=O)C5CC5)cn4n3)ccc2F)n(C)n1", "values": [
      {"measurement": "microsomal CLint at 1 µM", "setting": "[2]", "value": 9, "unit": "µL/min/mg"},
      {"measurement": "logD", "setting": "[11]", "value": 2.21},
      {"measurement": "solubility thermodynamic at 18 h", "setting": "[14]", "value": 14, "unit": "µg/mL"},
      {"measurement": "microsomal CLint at 1 µM", "setting": "[21]", "value": 54, "unit": "µL/min/mg"}
    ]}
  ]
}
